Results taken from patent US7141589B2, “Methods of inhibiting formation of vascular channels and methods of inhibiting proliferation” (The United States of America as represented by the …, priority 2001, dated 2006).
Where “and” joins values, the source holds several entries; their conditions need not be identical. Equal entries are not always repeated. Where two headings read alike, the source gives them in different places.

How the values were obtained:
[1] = molecular target: T1, deoxyhypusine hydroxylase (Homo sapiens, UniProt Q9BU89); assay: Inhibition of deoxyhypusine hydroxylation in HUVEC ([3H]spermidine labeling); type: cell-based; conditions: for IC50: [3H]spermidine, 18-20 h
T1 construct: endogenous in cells; host or cells: HUVEC
T1 sequence (Q9BU89 1-302): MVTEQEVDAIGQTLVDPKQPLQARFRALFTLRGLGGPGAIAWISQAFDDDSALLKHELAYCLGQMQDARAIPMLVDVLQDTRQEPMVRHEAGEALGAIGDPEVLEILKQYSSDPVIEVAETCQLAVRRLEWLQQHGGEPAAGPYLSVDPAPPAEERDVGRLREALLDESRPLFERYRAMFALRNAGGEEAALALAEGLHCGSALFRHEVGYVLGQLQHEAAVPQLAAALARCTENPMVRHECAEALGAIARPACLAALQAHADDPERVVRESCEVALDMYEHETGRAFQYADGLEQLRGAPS
Method: (§1) Exponentially growing HUVEC (5×10^5 cells per 60-mm dish) were incubated with 5 μCi/ml of [1,8-^3H]spermidine for 18 h in the presence or absence of the indicated concentrations of inhibitors. The cells were washed with PBS and harvested by centrifugation at 300×g for 5 minutes. Cellular proteins were precipitated with 10% trichloroacetic acid containing 1 mM each of unlabeled spermidine, spermine and putrescine, and the precipitates were washed three times to remove radiolabeled free polyamines. The washed precipitates were hydrolyzed in 6 N HCl for 18 h at 115° C. Radiolabeled hypusine and deoxyhypusine released by acid hydrolysis were separated by ion exchange chromatography using an automated Dionex D-400 amino acid analyzer (Park et al., (1982), supra). The radioactivity in the hypusine and the deoxyhypusine fractions was measured using a Beckman liquid scintillation spectrometer.

HUVEC [2] = assay: Inhibition of DNA synthesis in HUVEC ([3H]thymidine incorporation); type: cell-based; conditions: Homo sapiens, read-out: IC50 for inhibition of DNA synthesis
Method: The test compounds were added at the indicated concentrations to exponentially growing HUVEC in 24-well plates (1×10^5 cells/well). […] DNA was precipitated with 5% trichloroacetic acid, washed once with 5% trichloroacetic acid, and dissolved in 0.2 ml of 0.2 N NaOH for measurement of radioactivity.

HUVEC [3] = assay: Cell cycle analysis of HUVEC by flow cytometry; type: cell-based, human; conditions: for concentration that gave close to the maximum accumulation (>70%) of HUVEC in G1: 24 h of treatment
Method: (§2) Exponentially growing HUVEC were treated with the test compounds for 24 or 48 h, and processed for cell cycle analysis. After harvesting cells by trypsin treatment, isolation and staining of cell nuclei were performed using a CycleTEST™ PLUS DNA Reagent Kit (Becton & Dickinson, Rutherford, N.J.), according to the procedure recommended by the manufacturer. Briefly, nuclei were released from cells by treatment with a nonionic detergent and trypsin. The nuclear chromatin was stabilized with spermine. Propidium iodide was used to stain the DNA. Fluorescence histograms were generated with a FACSCalibur cytometer (Becton & Dickinson, Rutherford, N.J.), using CELLQuest software.

HUVEC [4] = assay: Tube formation on Matrigel by HUVEC; type: cell-based, human; conditions: 18 h; for concentration at which disruption of tube formation was manifest: HUVEC on Matrigel
Method: The formation of tubes on Matrigel by HUVEC was assessed as described (Kubota et al., J. Cell. Biol. 107(4): 1589–1598 (1988) and Ponce, In Vitro Matrigel Angiogenesis Assays. Totowa, N.J.: Humana Press Inc., 2000) with minor modifications as follows. Matrigel, 0.3 ml, was added to each well of a 24-well plate. After the Matrigel had gelled, HUVEC (5×10^4 cells), trypsinized from an exponentially growing culture, were added to each well in 0.2 ml of supplemented EBM-2. Test compounds were added in duplicate for each concentration and incubated at 37° C., 5% CO2, for 18 h. The medium was aspirated the next day, and the cells were fixed and stained with Diff-Quick Fix and staining solution II (Baxter Scientific Products, McGaw, Ill.).

prolyl 4-hydroxylase = assay: Inhibition of collagen proline 4-hydroxylation in HUVEC ([3H]proline labeling); type: cell-based, human
Method: For the determination of collagen proline 4-hydroxylation, exponentially growing HUVEC were plated in 60-mm dishes. After cell attachment, ascorbic acid (50 μg/ml), β-aminopropionitrile (30 μg/ml), and the test compounds were added along with [^3H]proline (20 μCi/ml). After an 18-h incubation, labeled proteins (including collagen) released into the medium were precipitated with 10% trichloroacetic acid. After washing three times with 5% trichloroacetic acid solution, the precipitated proteins were hydrolyzed in 6N HCl at 115° C. for 24 h. Unlabeled hydroxyproline was added to each sample. Radioactive proline and hydroxyproline were separated by thin layer chromatography on silica gel-coated glass plates in 75% phenol (phenol:water, 75:25 w/w) containing 0.2 mg/ml NaCN (Brenner et al., Dünnschict-Chromatographie von Aminosäuren. Experientia 16: 378–383 (1960). The positions of proline and hydroxyproline were visualized by the ninhydrin reaction. Hydroxyproline separated from proline with Rf values of 0.45 and 0.58, respectively. The silica gel in the hydroxyproline and proline areas was scraped off, eluted with 0.5 ml of water, and the radioactivity in each spot was counted. The degree of proline hydroxylation was estimated from the ratio of [^3H]hydroxyproline to the total radioactivity in [^3H]proline plus [^3H]hydroxyproline.

chick aortic arch rings = assay: Chick aortic arch ring sprouting on Matrigel
Method: The assay was carried out as described previously for rat aortic rings (Gho et al., 1999), supra) with a slight modification. Briefly, the aortic arches were dissected from 14-day-old chick embryos, cleaned free of unwanted tissue, and cut into 0.8 mm slices. Each ring was transferred into the center of a well of a 24-well plate to which 1.5 μl of Matrigel had just been added. Ten μl of ice-cold Matrigel were added immediately to embed the ring. When the Matrigel was solidified, 500 μl of supplemented EBM-2 were added to each well. After addition of the test compounds in sextuplicate for each concentration, the plates were incubated at 37° C. with 5% CO2, and the degree of sprouting was assessed by a blinded observer after 48 and 72 h.

Siha cells [5] = assay: Inhibition of DNA synthesis in Siha cells; type: cell-based, human; conditions: log-phase Siha cells, 20 hours
Method: The test compounds were added at the indicated concentrations to exponentially growing HUVEC in 24-well plates (1×10^5 cells/well). At 10 h, [^3H]thymidine (1 μCi/well) was added. After an additional 2-h incubation, the cells were washed twice with PBS. DNA was precipitated with 5% trichloroacetic acid, washed once with 5% trichloroacetic acid, and dissolved in 0.2 ml of 0.2 N NaOH for measurement of radioactivity.
(§3) Siha cells were incubated for 20 hours with increasing concentrations of ciclopirox and then metabolically labeled to determine the ability to inhibit DNA synthesis, as described in Example 4, and the ability to inhibit deoxyhypusine hydroxylation, as described in Example 2. Cell cycle arrest was assessed by flow cytometry, as described in Example 5.

[6] = molecular target: T1, deoxyhypusine hydroxylase; assay: Inhibition of deoxyhypusine hydroxylation in Siha cells; type: cell-based; conditions: 30 μM, 20 hours
Method: as §1, §3

Siha cells [7] = assay: Cell cycle arrest in Siha cells by flow cytometry; type: cell-based, human; conditions: 30 μm
Method: as §2, §3

Compound: c1ccc(-c2ccccn2)nc1 [2,2′-dipyridyl]
- IC50 [1]: 26 µM
- IC50 (HUVEC [2]; 18 h of treatment): 55 µM
- concentration that gave close to the maximum accumulation (>70%) of HUVEC in G1 (HUVEC [3]): 100 µM
- concentration at which disruption of tube formation was manifest (HUVEC [4]): 100 µM

Compound: Cc1cc(C2CCCCC2)n(O)c(=O)c1 [ciclopirox]
- concentration above which no [3H]hypusine was detectable (complete inhibition of deoxyhypusine hydroxylase) ([1]; 20 h): > 10 µM
- concentration at which only [3H]hypusine but no [3H]deoxyhypusine was detected (no inhibition) ([1]; 20 h): ≤ 2.5 µM
- IC50 [1]: ~5 µM and 5 µM
- inhibition of proline hydroxylation (prolyl 4-hydroxylase; 10 μM): 63%
- IC50 (HUVEC [2]; 18 h, 18 h of treatment): ~10 µM
- concentration that gave close to the maximum accumulation (>70%) of HUVEC in G1 (HUVEC [3]): 30 µM
- concentration giving cell cycle arrest similar to that at 24 h with 30 μM (HUVEC [3]; 48 h treatment): 10 µM
- concentration at which disruption of tube formation was manifest (HUVEC [4]): 10 to 20 µM
- relative inhibition of sprouting (chick aortic arch rings; 72 h): the most inhibitory
- inhibition of DNA synthesis (Siha cells [5]): sharp, dose-dependent inhibition
- suppression of deoxyhypusine hydroxylation [6]: totally suppressed
- cell cycle effect (Siha cells [7]): arrest in late G1

Compound: Cc1c(O)c(=O)ccn1C [deferiprone, 1,2-dimethyl-3-hydroxypyrid-4-one]
- IC50 [1]: 117 µM
- IC50 (HUVEC [2]; 18 h, 18 h of treatment): 130 µM
- concentration that gave close to the maximum accumulation (>70%) of HUVEC in G1 (HUVEC [3]): 200 µM
- inhibition of tube formation (HUVEC [4]; 200 μM): Modest inhibition
- concentration showing a strong inhibition of sprouting (chick aortic arch rings; 72 h of incubation): 400 µM

Compound: CC(=O)N(O)CCCCCNC(=O)CCC(=O)N(O)CCCCCNC(=O)CCC(=O)N(O)CCCCCN [deferoxamine]
- IC50 [1]: 16 µM and ~16 µM
- inhibition of proline hydroxylation (prolyl 4-hydroxylase; 100 μM): 40%
- IC50 (HUVEC [2]; 18 h of treatment): 16 µM
- concentration that gave close to the maximum accumulation (>70%) of HUVEC in G1 (HUVEC [3]): 50 µM

Compound: NC(Cn1ccc(=O)c(O)c1)C(=O)O (stereo not shown) [mimosine]
- IC50 [1]: 191 µM
- inhibition of proline hydroxylation (prolyl 4-hydroxylase; 400 μM): only minor inhibition
- IC50 (HUVEC [2]; 18 h): 455 µM
- increase in G1 (HUVEC [3]; 400 μM, 24 h incubation): did not cause a significant increase in G1
- impairment of tube formation (HUVEC [4]; 400 μM): little sign of impairment
- inhibition of sprout growth (chick aortic arch rings; 400 μM, 72 h): moderate inhibition
